Data reported in PubChem BioAssay AID1963872 (Molecular Pharmacology Branch, DTP, NCI, 2024).

System: KRAS patient-derived spheroids with HUVEC/MSC, viability
Assay: Anticancer human tumor 519858-162-T-J1-PDC patient-derived colon adenocarcinoma cell line growth inhibition [KRAS2]
Conditions: for IC50: curve of first compound; for viability, T/C: stronger effect = lower value
Summary of the method: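 Combination screen of spheroid viability in tumor-cell co-cultures with endothelial (HUVEC) and mesenchymal stem cell stroma. Each agent was tested in half-log dilutions, topping at clinical Cmax or at 10 microM without a known Cmax.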

[1] = second compound 0.1 µM, first compound 0.0316 µM
[2] = second compound 0.1 µM, first compound 0.1 µM
[3] = second compound 0.1 µM, first compound 0.316 µM
[4] = second compound 0.1 µM, first compound 1 µM
[5] = second compound 0.1 µM, first compound 3.16 µM
[6] = second compound 0.316 µM, first compound 0.0316 µM
[7] = second compound 0.316 µM, first compound 0.1 µM
[8] = second compound 0.316 µM, first compound 0.316 µM
[9] = second compound 0.316 µM, first compound 1 µM
[10] = second compound 0.316 µM, first compound 3.16 µM
[11] = second compound 1 µM, first compound 0.0316 µM
[12] = second compound 1 µM, first compound 0.1 µM
[13] = second compound 1 µM, first compound 0.316 µM
[14] = second compound 1 µM, first compound 1 µM
[15] = second compound 1 µM, first compound 3.16 µM
[16] = second compound 3.16 µM, first compound 0.0316 µM
[17] = second compound 3.16 µM, first compound 0.1 µM
[18] = second compound 3.16 µM, first compound 0.316 µM
[19] = second compound 3.16 µM, first compound 1 µM
[20] = second compound 3.16 µM, first compound 3.16 µM
[21] = second compound 0.1 µM, first compound 10 µM
[22] = second compound 0.316 µM, first compound 10 µM
[23] = second compound 1 µM, first compound 10 µM
[24] = second compound 3.16 µM, first compound 10 µM
[25] = second compound 10 µM, first compound 0.0316 µM
[26] = second compound 10 µM, first compound 0.1 µM
[27] = second compound 10 µM, first compound 0.316 µM
[28] = second compound 10 µM, first compound 1 µM
[29] = second compound 10 µM, first compound 3.16 µM
[30] = second compound 10 µM, first compound 10 µM
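Also: compound exposure lasted seven days before readout.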
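For viability, T/C in this document: 100% = DMSO vehicle control viability.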

SMILES	IC50 (second compound 0.1 µM) [nM]	IC50 (second compound 0.316 µM) [nM]	IC50 (second compound 1 µM) [nM]	IC50 (second compound 3.16 µM) [nM]	viability, T/C [1] [%]	viability, T/C [2] [%]	viability, T/C [3] [%]	viability, T/C [4] [%]	viability, T/C [5] [%]	viability, T/C [6] [%]	viability, T/C [7] [%]	viability, T/C [8] [%]	viability, T/C [9] [%]	viability, T/C [10] [%]	viability, T/C [11] [%]	viability, T/C [12] [%]	viability, T/C [13] [%]	viability, T/C [14] [%]	viability, T/C [15] [%]	viability, T/C [16] [%]	other results
CC1COCCN1c1cc(-c2ccnn2C)c2ccnc(-c3ccn[nH]3)c2n1 (stereo not given) + C=CC(=O)N1CCN(c2nc(OCC3CCCN3C)nc3c2CCN(c2cccc4cccc(C)c24)C3)CC1CC#N	434	813	470	< 10	74	73.3	51.6	50.3	28.4	72.7	71.2	69.5	45.7	33.2	58.3	84.5	58.6	33.9	26.7	64.3	IC50 (second compound 0.0316 µM): 2390 nM; viability, T/C (second compound 0.0316 µM, first compound 0.01 µM): 98.8%; viability, T/C (second compound 0.0316 µM, first compound 0.0316 µM): 78.5%; viability, T/C (second compound 0.0316 µM, first compound 0.1 µM): 78.3%; viability, T/C (second compound 0.0316 µM, first compound 0.316 µM): 69.2%; viability, T/C (second compound 0.0316 µM, first compound 1 µM): 74.9%; viability, T/C (second compound 0.0316 µM, first compound 3.16 µM): 40.7%; viability, T/C (second compound 0.1 µM, first compound 0.01 µM): 115%; viability, T/C (second compound 0.316 µM, first compound 0.01 µM): 78.5%; viability, T/C (second compound 1 µM, first compound 0.01 µM): 83.4%; viability, T/C (second compound 3.16 µM, first compound 0.01 µM): 38.3%; viability, T/C [17]: 24.3%; viability, T/C [18]: 29.5%; viability, T/C [19]: 30.7%; viability, T/C [20]: 13.2%
COC(=O)c1ccc2c(C(=Nc3ccc(N(C)C(=O)CN4CCN(C)CC4)cc3)c3ccccc3)c(O)[nH]c2c1 + CNCc1ccccc1-c1csc(C(C)Nc2nc(C)nc3cc(OC)c(OC)cc23)c1	> 10000	> 10000	> 10000	2340	96.8	83.2	77.4	100	92.4	58.2	91.8	57	89.9	90.5	66.9	110	103	57.1	64.7	59.4	IC50 (second compound 10 µM): < 31.6 nM; viability, T/C [21]: 73.3%; viability, T/C [22]: 92%; viability, T/C [23]: 70.4%; viability, T/C [17]: 128%; viability, T/C [18]: 73.3%; viability, T/C [19]: 74.8%; viability, T/C [20]: 40%; viability, T/C [24]: 37.6%; viability, T/C [25]: 0.86%; viability, T/C [26]: 0.39%; viability, T/C [27]: 0.42%; viability, T/C [28]: 0.31%; viability, T/C [29]: 0.28%; viability, T/C [30]: 1.62%
CC(C)NCC(C(=O)N1CCN(c2ncnc3c2C(C)CC3O)CC1)c1ccc(Cl)cc1 (stereo not given) + COc1cc2nc(C)nc(NC(C)c3cc(N)cc(C(F)(F)F)c3)c2cc1OC1CCOC1	10000	> 10000	> 10000	> 10000	72.5	89.6	86.2	99.4	41.4	67.6	105	89.6	74.3	65.2	77.4	113	78.2	66	49.4	78	IC50 (second compound 10 µM): > 10000 nM; viability, T/C [21]: 71%; viability, T/C [22]: 78.4%; viability, T/C [23]: 60.3%; viability, T/C [17]: 69.2%; viability, T/C [18]: 56.6%; viability, T/C [19]: 56.1%; viability, T/C [20]: 61.5%; viability, T/C [24]: 64.1%; viability, T/C [25]: 58.7%; viability, T/C [26]: 62%; viability, T/C [27]: 61.2%; viability, T/C [28]: 52.3%; viability, T/C [29]: 58.8%; viability, T/C [30]: 72%
